This is an account of results in patent US10195195B2, “Selective histamine H4 receptor antagonists for the treatment of vestibular disorders” (INSERM (Institut National de la Sante de la Recherche …, priority 2008, dated 2019).

The structures appear in SMILES notation. Entries after “also recorded” stand apart in the source; their conditions may differ. Where two headings read alike, the source gives them in different places.

In assay [1] the test system is vestibular ganglion neurons. The assay is described as follows: Patch-clamp (current-clamp) recording of depolarization-induced firing volley and membrane potential in cultured vestibular ganglion neurons. It is filed as cell-based, Wistar rats. The note with it: for IC50: cultured rat vestibular neurons; for inhibition at 0.1 µM: 100 nM (0.1 μM); for variation of membrane potentials (qualitative): FIG. 4, high concentrations; for reversibility of the firing inhibition during rinse with control medium: perfusion of control medium after drug; for depolarization of the neurons: 5 mM. The method, then: Cell culture: Vestibular ganglion neurons were explanted aseptically from 2 to 6 days-old Wistar rats (Centre d'Elevage Janvier, Le Genest-Saint-Isle, France). All procedures were carried out in accordance to the French/European Communities Council Directive 86/609/EEC. The brainstem was hemi-sectioned and the eighth nerve was followed up to the level of the otocyst and cut just rostral to it.
The vestibular ganglia were excised, placed in Leibovitz medium (L15, Invitrogen, Cergy Pontoise, France), and dissociated by enzymatically (collagenase 0.75 mg/ml, dispase 1 mg/ml and dnase 0.75 mg/ml, 15 min at 25° C.). Enzymes were washed with Tyrode solution without Ca^2+ and Mg^2+, and the ganglion neurons were gently dissociated in culture medium with a pipette. The neurons were plated onto culture dishes previously coated with 5 μg/ml poly-L-ornithine, 10 μg/ml laminin and subsequently filled with 0.5 ml of a 1:1 mixture of Dulbecco's modified eagle medium and Ham's F-12 medium (Invitrogen) supplemented with 2% N2 nutrient glucose (5 g/l), glutamine (1.5 mM), sodium bicarbonate (1.1 g/l), HEPES buffer (15 mM, pH 7.4), AraC 2 μM, brain-derived neurotrophic factor 10 μg/ml and 1% penicillin/streptomycin. The low density cultures were then maintained at 37° C. in 5% CO2 for 7 to 8 days prior patch-clamp experiments.
Patch-clamp recordings: Whole-cell (current-clamp configuration) recording of responses were obtained using an Axopatch 200B amplifier (Axon Instruments; Molecular Devices Corp., Sunnyvale, Calif., USA). The extracellular solution contained (in mM): NaCl 135, HEPES 10, glucose 10, MgCl2 1, KCl 5, and CaCl2 4, pH 7.35 (with NaOH). Recording pipettes (2-3 MΩ) were drawn from microhematocrit tubes (Modulohm I/S Herlev, Denmark) and filled with the following solution (in mM): KCl 135, HEPES 10,glucose 10, NaCl5, EGTA 5, Mg-ATP3, GTP-Na 1, pH 7.35 (with KOH). The osmolarity of all solutions was set to 300 mOsm/I^−1. Experimental parameters and data acquisition were controlled with a PC computer and a Tecmar Labmaster analogue interface (Axon instruments, CA). Voltage transients were recorded from neurons presenting resting potentials lying between −45 and −65 mV. Trains of action potentials (APs) were elicited using 1 s, 200 pA depolarizing pulses applied every 6.5 s. Current signals were filtered at 10 KHz, digitized and stored using pCLAMP software (v 10.2, Axon instruments).
Drug application : The control and test solutions were applied using a multiple capillary perfusion system (flow rate 500 μl/min). After each application of the tested drug, the cells were washed with control buffer.
Data analysis and statistical methods : The results are expressed as means±S.E.M. The number of sample size (n) given is the number of neurons tested. Variations of the membrane potential and the number of APs were analysed using pCLAMP software (v10.2, Axon instruments). Drug concentration-effect relationships were fitted with a Hill equation of the form I(x)=A*xn/(IC50n+xn).

Assay [2] has as its target T1, human H3 receptor (Homo sapiens, UniProt Q9Y5N1).
T1 construct: expressed in transfected cells; host or cells: SK-N-MC or HEK293 T
The note with it: radioligand, transfected cell membranes; cited from earlier work.

The test system of assay [3] is peripheral vestibular receptors isolated from axolotl. The settings on record: cited from earlier work.
[4] abbreviates: Neuron, dose-response fitted with Hill equation, read-out: IC50 of inhibition of the firing volley induced by standard depolarization.
The mark [5] stands for this setting: Rattus norvegicus, Neuron, tonic discharge.

T1 sequence (Q9Y5N1 whole entry): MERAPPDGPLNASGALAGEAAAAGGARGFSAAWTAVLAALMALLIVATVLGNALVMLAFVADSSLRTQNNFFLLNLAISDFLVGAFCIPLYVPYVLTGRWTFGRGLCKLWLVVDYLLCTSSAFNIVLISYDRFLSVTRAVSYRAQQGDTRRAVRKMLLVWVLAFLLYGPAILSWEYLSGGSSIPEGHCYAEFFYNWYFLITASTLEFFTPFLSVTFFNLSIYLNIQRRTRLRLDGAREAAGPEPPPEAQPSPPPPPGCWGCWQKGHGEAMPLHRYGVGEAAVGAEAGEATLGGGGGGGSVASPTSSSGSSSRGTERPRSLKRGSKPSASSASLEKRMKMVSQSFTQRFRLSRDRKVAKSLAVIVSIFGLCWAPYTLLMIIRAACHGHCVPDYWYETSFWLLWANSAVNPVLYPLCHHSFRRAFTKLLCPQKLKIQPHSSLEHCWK

Consider `CN1CCN(C(=O)c2cc3cc(Cl)ccc3[nH]2)CC1` [JNJ 7777120, 1-[(5-chloro-1H-indol-2-yl)carbonyl]-4-methylpiperazine], for which, in assay [1] (setting [4]), the IC50 (as a rule, the concentration at which inhibition is half-maximal) was 10 µM. In assay [1] (setting [5]), the inhibition (as a rule, the drop in the measured response relative to a control, in per cent) at 0.1 µM was determined as 3%; testing at 1 µM gave an inhibition of 29%; the inhibition at 10 µM is 41%. In addition, the membrane depolarisation result in assay [1] (high concentration application (1 mM)) is listed as “did not induce membrane depolarisation”.

Take `CN1CCN(C(=O)c2nc3cc(Cl)ccc3[nH]2)CC1` [VUF 6002, 1-[(5-chloro-1H-benzimidazol-2-yl)carbonyl]-4-methylpiperazine]: in assay [1], the “action potentials intrinsic properties (spike amplitude, time to peak, rise and decay time constants)” value is “not affected”; the “variation of membrane potentials (qualitative)” value (“variation of membrane potentials” for short) is given as “did not induce membrane variations”; the “reversibility of the firing inhibition during rinse with control medium” value is “reversed during rinse with control medium; also recorded: totally reversed”. Further, in assay [1] (100 μM), the membrane hyperpolarization entry is “about −3 mV”. Also, the “inhibition of the firing” value in assay [1] (100 μM, tonic discharge) is listed as 90%. In addition, the “effect on firing, phasic discharge pattern” value in assay [1] (1 mM, neurons with phasic discharge, n=6) is listed as “completely abolished the firing”. In assay [1] (setting [4]), the IC50 was determined as 5.8 µM. Further, in assay [1] (setting [5]), the inhibition at 0.1 µM was 20%, the inhibition at 1 µM was found to be 37% and the inhibition at 10 µM worked out at 55%. Besides, in assay [1] (Rattus norvegicus, Neuron, 100 μM, tonic discharge), the inhibition at 100 µM came out at 91%. Also, the “concentration of maximum inhibition of the firing” value in assay [1] (dose-response between 1 nM and 1 mM) was “around 100 μM”.

As to `CNCCc1cnc[nH]1` [[^3H]N-a-methyl histamine], the Kd (usually a measure of binding affinity in units of concentration) in assay [2] was 0.001 µM.

Regarding `CNCCc1ccccn1.Cl.Cl` [betahistine, betahistine dihydrochloride], the “effect on membrane potential” value in assay [1] (2 mM application) is given as “not affected”. Besides, the “depolarization of the neurons” value in assay [1] (dihydrochloride) is given as “about 15 mV”; in assay [1] (listed as BH, dihydrochloride), 14.3±4.7 mV. Also, the “variation of membrane potentials” value in assay [1] (dihydrochloride) was “pronounced depolarisation of the neurons”; in assay [1] (listed as betahistidine, dihydrochloride), “strong depolarisations at high concentrations”. Besides, the IC50 in assay [1] (dose-response relationship, read-out: IC50 of inhibition of the discharge volley) was 2200 µM; in assay [3] (read-out: IC50 of inhibition of the afferent discharge), 800 µM. Further, the “reversibility of the firing inhibition during rinse with control medium” value in assay [1] (dihydrochloride) is listed as “rapidly reversed during rinse with control medium”; in assay [1] (listed as BH, dihydrochloride) it was “rapidly abolished”. In addition, in assay [1] (standard depolarization stimulation), the “concentration of maximum inhibition of the discharge volley” value is “around 10 mM”. Also, the “concentration of maximum effect on afferent discharge” value in assay [3] is “around 10 mM”.

For `O=C(O)/C=C\C(=O)O.S=C(NC1CCCCC1)N1CCC(c2c[nH]cn2)CC1` [thioperamide, N-cyclohexyl-4-(1H-imidazol-4-yl)-1-piperidinecarbothioamide maleate], the “membrane depolarisation at low concentration” value in assay [1] (0.01 to 10 μM) is reported as “without depolarizing the neurons”. In assay [1] (maleate), the “variation of membrane potentials” value is reported as “strong depolarisations at high concentrations; also recorded: strong membrane depolarisations; also recorded: pronounced depolarisation of the neurons”. Moreover, in assay [1] (setting [4]), the half-inhibitory concentration (IC50) was determined as 100 µM. Moreover, in assay [1] (setting [5]), testing at 0.1 µM gave an inhibition of 10% and the inhibition at 10 µM is 24%. In addition, the inhibition at 500 µM in assay [1] (Rattus norvegicus, Neuron, 500 μM, read-out: inhibition of the firing (blocked activity)) amounted to 87%. The “reversibility of the firing inhibition during rinse with control medium” value in assay [1] is reported as “only slightly reversible”.
